Experiments:
ovariectomized rats [1] = experiment: serum test (ALP, BUN, CRE, GOT, GPT) of ovariectomized rats fed with the test agents; settings: Comparison 2 (OVXC): ovariectomized rats, calcium citrate 0.5 g/kg, no liquid
Method: (§1) Owing to hormone variation, menopausal females lose their bones fast and suffer from osteoporosis easily. The rats used in the experiment groups, control group, and comparison groups are female Sprague-Dawley rats. The rats are fed with different proportions of the high-magnesium potable water beforehand. Then, the serum and tissue slices of the rats are analyzed.
(§2) The dosages of the high-magnesium concentrated liquid fed to the rats in experiment groups, control group and comparison groups are shown in Table.1. The unit of the dosage is milliliter or gram per kilogram of body weight. The control group is the group of unovariectomized rats. The supply of calcium citrate is to learn the influence of calcium on osteoporosis.

ovariectomized rats [2] = experiment: Micro-CT bone density and trabecula images of ovariectomized rats; assay type: in vivo, female Sprague-Dawley rats; settings: Comparison Group II, calcium citrate 0.5 g/kg, no liquid
Method: as §1, §2
FIGS. 2A-2F are respectively the images of the bone densities of the rats of Experiment Group I, Experiment Group II, Experiment Group III, Control Group, Comparison Group I, and Comparison Group II. FIGS. 3A-3F are respectively the trabecula images of the rats of Experiment Group I, Experiment Group II, Experiment Group III, Control Group, Comparison Group I, and Comparison Group II.

ovariectomized rats [3] = experiment: serum test (calcium, magnesium, potassium, sodium, phosphor) of ovariectomized rats fed with the test agents; settings: Comparison 2 (OVXC): ovariectomized rats, calcium citrate 0.5 g/kg, no liquid
Method: as §1, §2

## O=C([O-])CC(O)(CC(=O)[O-])C(=O)[O-].O=C([O-])CC(O)(CC(=O)[O-])C(=O)[O-].[Ca+2].[Ca+2].[Ca+2] [Calcium Citrate, calcium citrate]
Ovariectomized rats [1]
  ALP in serum: 130 U/L
  BUN in serum: 17 mg/dL
  CRE in serum: 0.85 mg/dL
  GOT in serum: 75 U/L
  GPT in serum: 75 U/L
Ovariectomized rats [2]; FIG. 2F
  bone density (Micro-CT images): lower bone density
Ovariectomized rats [2]; FIG. 3F
  trabecula distribution (Micro-CT images): less compact trabecula distribution
Ovariectomized rats [3]
  Calcium in serum: 12.4 mg/dL
  Phosphor in serum: 8 mg/dL
  Potassium in serum: 5.8 mmol/L
  Sodium in serum: 143 mmol/L

Source: patent US10647591B2, “High-magnesium concentrated liquid” (QUALITY PURE CO., LTD., priority 2016, dated 2020)
